# PMC6326523, “A high-throughput screen to identify novel small molecule inhibitors of the Werner Syndrome Helicase-Nuclease (WRN)” (PLoS ONE, 2019)
# Legend:
# HeLa 1.2.11 cells = test: HeLa cell proliferation assay (WST-1); type: cell-based, human; details: 50 μM, 3-day time course
# Experimental: WRN inhibitors were diluted in DMSO to a concentration 100-fold higher than their final concentrations. U2-OS cells in culture were counted, spun down and resuspended to 35,000 cells/mL in DMEM with 10% FBS and Pen/Strep antibiotic. For each cell condition, 15 μL of DMSO or inhibitor was added to 1.5 ml of U2-OS cells in DMEM or DMEM alone. One hundred μL of each cell condition was plated in triplicate on each of four 96-well plates representing days 0–3. Ten μL of WST-1 cell proliferation reagent (Roche) was added to the day 0 plate and readings were taken 2 hr later using a plate reader set to 450 nm. WST-1 cell proliferation reagent was added to plates on days 1–3 and readings were taken after 2 hr incubation. Percent cell proliferation was normalized to cells in the presence of DMSO with the background OD450 of DMEM with each drug subtracted out. […]
# Fig 9 Effects of WRN helicase inhibitors on cancer cell proliferation. (A) Cell proliferation of HeLa 1.2.11 cells treated with 50 μM NCGC00029283-03, NCGC00063279-03, NCGC00357377-01 and NSC 617145 (positive control) or vehicle (DMSO) on Day 0 and Day 3 as measured using the WST-1 cell proliferation reagent. […]
# [1] = molecular target: T1, GST-WRN500-946 helicase domain fragment (Homo sapiens, UniProt Q14191); test: Confirmatory fluorometric helicase screen, PubChem AID 720497; type: biochemical; details: 20 nM GST-WRN500-946, 100 nM FORKF, NA = Not Active, read-out: IC50 (μM) Assay ID 720497
# T1 construct: made in house; host or cells: insect cells
# T1 sequence (Q14191 500-946): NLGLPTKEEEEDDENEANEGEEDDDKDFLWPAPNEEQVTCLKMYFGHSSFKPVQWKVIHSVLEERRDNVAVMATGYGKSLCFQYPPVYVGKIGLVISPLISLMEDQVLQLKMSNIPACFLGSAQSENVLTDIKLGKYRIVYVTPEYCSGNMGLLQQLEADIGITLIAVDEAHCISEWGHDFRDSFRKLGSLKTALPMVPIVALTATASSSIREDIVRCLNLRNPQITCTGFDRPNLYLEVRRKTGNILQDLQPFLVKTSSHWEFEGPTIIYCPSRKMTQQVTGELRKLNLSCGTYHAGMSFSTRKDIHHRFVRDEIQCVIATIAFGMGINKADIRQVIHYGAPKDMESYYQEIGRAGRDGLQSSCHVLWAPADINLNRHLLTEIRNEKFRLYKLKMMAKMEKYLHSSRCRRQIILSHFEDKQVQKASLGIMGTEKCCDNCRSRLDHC
# Experimental: The structures of the members of this collection are available in the PubChem portal https://pubchem.ncbi.nlm.nih.gov/. For both the 350,000 small molecule collection and the LOPAC^1280 screens, 3 μL of GST-WRN500-946 or reaction buffer only were dispensed using a solenoid-valve nanoliter dispenser into a black 1536-well plate (Greiner). Twenty three nL of each serially diluted compound (0.08–50 μM for the LOPAC screen and 0.003–114 μM for the larger library screen) or control were added to each well using a Kalypsys pintool equipped with a 1536-pin array. Plates were incubated at room temperature for 15 min, followed by initiation of the reactions via the addition of 1 μL of substrate (100 nM FORKF and 2 mM ATP final concentrations). Plates were transferred to a ViewLux high-throughput CCD imager and fluorescence was measured in kinetic mode using an excitation filter of 525 nm and emission filter of 598 nm.
# Zʹ factor, a measure for assay quality control was calculated using the formula Z′ = 1−(3σS^++3σS^−)∕|μS^+−μS^−| as described previously. In this formula, 3σS^+ represents 3 standard deviations from the mean of positive signals while 3σS^− represents 3 standard deviations from the mean of negative signals. μS^+ and μS^− represent the mean of positive signals and negative signals respectively. Percent activity was derived using in-house software (http://tripod.nih.gov/curvefit/). Dose-response curves were classified as described previously.
# A collection of approximately 350,000 compounds is available for screening which has been assembled from multiple sources to provide diverse chemical scaffolds with known purity, identity and solubility. To perform the high-throughput screen of these compounds, we needed to produce approximately 50 milligrams of recombinant WRN helicase fragment. To accomplish this, we cloned the helicase domain fragment into several plasmids for either insect cell or bacterial expression to optimize expression and yield. We selected expression plasmids for insect cell expression with either a GST or MBP tag (image A in S1 Fig) and purified the protein (image B in S1 Fig). The GST-WRN500-946 fragment isolated from insect cells was used in the high throughput screen with the conditions described in Fig 2C (20 nM GST-WRN500-946, 100 nM FORKF DNA substrate) and a summary of the results can be found on PubChem (National Center for Biotechnology Information. PubChem BioAssay Database; Assay Identifier (AID) = 651768, https://pubchem.ncbi.nlm.nih.gov/bioassay/651768). […] To verify the active compounds, approximately 600 hit molecules were retested in a confirmatory screen also found on PubChem (National Center for Biotechnology Information. PubChem AID = 720497, https://pubchem.ncbi.nlm.nih.gov/bioassay/720497). Of these, a little less than four hundred compounds were confirmed as active compounds.
Compound,Effect on HeLa 1.2.11 cell proliferation (HeLa 1.2.11 cells),IC50 [1]
Cc1ccc(-c2csc(NS(=O)(=O)c3cccc(F)c3)n2)o1 [MLS002251300-02],did not reduce cell proliferation,24.1 µM
COc1ccc2nc(O)c(-c3noc(-c4ccccc4)n3)cc2c1 [NCGC00063279-02],–,21.5 µM
